The test system of assay [1] is NIH 3T3 murine embryonic lung fibroblasts. Briefly: BrdU incorporation (Studies L-117.01/02). The assay is classed as cell-based, mouse. Particulars: NIH 3T3, BrdU. How it is done:
FIG. 19. […] Serum starved NIH 3T3 cells were treated with purified CG53135-01 (CG53135 in figure), 10% serum or vehicle only (control). DNA synthesis was measured in triplicate for each sample, using a BrdU incorporation assay. Data points represent average BrdU incorporation and bars represent standard error (SE).
(§1) Heterologous Protein Expression: CG53135-01 (batch 4A and 6) was used in these experiments. Protein was expressed using Escherichia coli (E. coli), BL21 (Novagen, Madison, Wis.), transformed with full-length CG53135-01 in a pETMY-hFGF20X/BL21 expression vector. Cells were harvested and disrupted, and then the soluble protein fraction was clarified by filtration and passed through a metal chelation column. The final protein fraction was dialyzed against phosphate buffered saline (PBS) plus 1 M L-arginine. Protein samples were stored at −70° C.
(§2) BrdU Incorporation: proliferative activity was measured by treatment of serum-starved cultured cells with a given agent and measurement of BrdU incorporation during DNA synthesis. Cells were cultured in respective manufacturer recommended basal growth medium supplemented with 10% fetal bovine serum or 10% calf serum as per manufacturer recommendations. Cells were grown in 96-well plates to confluence at 37° C. in 10% CO2/air (to subconfluence at 5% CO2 for dedifferentiated chondrocytes and NHOst). […]

Assay [2] relates to NIH 3T3 cells. Briefly: Growth assay (cell count). Particulars: 1 μg, 48 hours. It is filed as cell-based, mouse. How it is done:
FIG. 20. CG53135 stimulates Growth of NIH 3T3 Fibroblasts. Duplicate wells of serum starved NIH 3T3 cells were treated for […] with purified CG53135-01 (1 ug) or vehicle control. Cell counts for each well were determined in duplicate. Y— axis identifies cell number, which is the average of 4 cell counts (treatment duplicates×duplicate counts) and standard error (SE).
Growth Assay: growth activity was obtained by measuring cell number following treatment of cultured cells with a given agent for a specified period of time. In general, cells grown to ˜20% confluency in 6-well dishes were treated with basal medium supplemented with CG53135 or control, incubated for several days, trypsinized and counted using a Coulter Z1 Particle Counter.
To determine if recombinant CG53135-01 sustained cell growth, NIH 3T3 cells were cultured with 1 μg CG53135-01 or control for 48 hours and then counted (FIG. 20). CG53135 induced an approximately 2-fold increase in cell number relative to control in this assay.

Assay [3] has as its system HUVECS. Briefly: VEGF induced cell migration. The conditions noted are these: HUVEC. The assay is classed as cell-based, human.
Assay [4] has as its system MG-63 osteosarcoma cell line. Briefly: BrdU incorporation (Studies L-117.01/02). The assay is classed as cell-based, human.
Source text: as §1
as §2, with “NHOst). Cells were then starved in respective basal growth medium for 24-72 hours. CG53135 protein purified from E. coli or pCEP4/Sec or pCEP4/Sec-FGF 20× enriched conditioned medium was added (10 μL/100 μL of culture) for 18 hours. BrdU (10 μM final concentration) was then added and incubated with the cells for 5 hours.” for “NHOst).”

The test system of assay [5] is breast epithelial cell line, B5589. Briefly: BrdU incorporation (Studies L-117.01/02). It is filed as cell-based, human.
Source text: as §1
as §2, with “NHOst). Cells were then starved in respective basal growth medium for 24-72 hours. CG53135 protein purified from E. coli or pCEP4/Sec or pCEP4/Sec-FGF 20× enriched conditioned medium was added (10 μL/100 μL of culture) for 18 hours. BrdU (10 μM final concentration) was then added and incubated with the cells for 5 hours.” for “NHOst).”

Assay [6] has as its system human dermal microvascular endothelial cells. Briefly: Cell survival and BrdU incorporation in endothelial cells. It is filed as cell-based. Particulars: HMVEC-d. How it is done:
(§3) BrdU Incorporation: proliferative activity was measured by treatment of serum-starved cultured cells with a given agent and measurement of BrdU incorporation during DNA synthesis. Cells were cultured in respective manufacturer recommended basal growth medium supplemented with 10% fetal bovine serum or 10% calf serum as per manufacturer recommendations. Cells were grown in 96-well plates to confluence at 37° C. in 10% CO2/air (to subconfluence at 5% CO2 for dedifferentiated chondrocytes and NHOst). Cells were then starved in respective basal growth medium for 24-72 hours. CG53135 protein purified from E. coli or pCEP4/Sec or pCEP4/Sec-FGF 20× enriched conditioned medium was added (10 μL/100 μL of culture) for 18 hours. BrdU (10 μM final concentration) was then added and incubated with the cells for 5 hours. BrdU incorporation was assayed according to the manufacturer's specifications (Roche Molecular Biochemicals, Indianapolis, Ind.).
(§4) Effects of CG53135 on Endothelial Cells: protein therapeutic agents may inhibit or promote angiogenesis, the process through which endothelial cells differentiate into capillaries. Because CG53135 belongs to the fibroblast growth factor family, some members of which have angiogenic properties, the antiangiogenic or pro-angiogenic effects of CG53135 on endothelial cell lines were evaluated. The following cell lines were chosen because they are cell types used in understanding angiogenesis in cancer: HUVEC (human umbilical vein endothelial cells), BAEC (bovine aortic endothelial cells), HMVEC-d (human endothelial, dermal capillary). These endothelial cell types undergo morphogenic differentiation and are representative of large vessel (HUVEC, BAEC) as well as capillary endothelial cells (HMVEC-d).

For assay [7], the system named is human umbilical vein endothelial cells. Described as above. The assay is classed as cell-based. The conditions noted are these: HUVEC. How it is done: as §3, §4
The test system of assay [8] is bovine aortic endothelial cells. The description is as above. The assay is classed as cell-based. The conditions noted are these: BAEC. On the procedure:
as §3, §4

The test system of assay [9] is human aorta smooth muscle cells (HSMC). Nature of the assay: BrdU incorporation (Studies L-117.01/02). It is filed as cell-based.
Source text: as §1, §3

In assay [10] the test system is primary human osteoblasts (NHOst). Briefly: BrdU incorporation (Studies L-117.01/02). The assay is classed as cell-based.
Source text: as §1, §3

Assay [11] relates to CCD 1106 KERTr human keratinocytes. Nature of the assay: BrdU incorporation (Studies L-117.01/02). The assay is classed as cell-based.
Source text: as §1, §3

For assay [12], the system named is human pulmonary artery smooth muscle cells. Briefly: BrdU incorporation (Studies L-117.01/02). The assay is classed as cell-based.
Source text: as §1, §3

Assay [13] relates to Balb MK mouse keratinocytes. Briefly: BrdU incorporation (Studies L-117.01/02). The assay is classed as cell-based.
Source text: as §1, §3

The test system of assay [14] is human coronary artery smooth muscle cells. Nature of the assay: BrdU incorporation (Studies L-117.01/02). The assay is classed as cell-based.
Source text: as §1, §3

For assay [15], the system named is rabbit synoviocyte cell line, HIG-82. Nature of the assay: BrdU incorporation (Studies L-117.01/02). It is filed as cell-based.
Source text: as §1, §3

Assay [16] deals with TF-1, an erythroblastic leukemia cell line. Nature of the assay: BrdU incorporation (Studies L-117.01/02). The assay is classed as cell-based.
Source text: as §1, §3

The test system of assay [17] is CCD-1070Sk normal human foreskin fibroblasts. Nature of the assay: BrdU incorporation (Studies L-117.01/02). The assay is classed as cell-based.
Source text: as §1, §3

The subject of assay [18] is mouse skeletal muscle cells. Nature of the assay: BrdU incorporation (Studies L-117.01/02). It is filed as cell-based.
Source text: as §1, §3

Assay [19] deals with Jurkat, an acute T-lymphoblastic leukemia cell line. Nature of the assay: BrdU incorporation (Studies L-117.01/02). The assay is classed as cell-based.
Source text: as §1, §3

Assay [20] concerns endothelial cells. Nature of the assay: Proliferation summary for variants. It is filed as cell-based. Particulars: in vitro. On the procedure:
(§5) Experiments were performed to evaluate the proliferative response of representative cell types to CG53135, e.g., a full-length tagged variant (CG53135-01), a deletion variant (CG53135-02), and a full-length codon-optimized untagged variant (CG53135-05).
(§6) CG53135-02 (batch 1 and 13) was also used in these experiments. Protein was expressed in E. coli, BLR (DE3) (Novagen), transformed with the deletion variant CG53135-02 inserted into a pET24a vector (Novagen). A research cell bank (RCB) was produced and cell paste containing CG53135-02 was produced by fermentation of cells originating from the RCB. Cell membranes were disrupted by high-pressure homogenization, and lysate was clarified by centrifugation. CG53135-02 was purified by ion exchange chromatography. The final protein fraction was dialyzed against the formulation buffer (100 mM citrate, 1 mM ethylenediaminetetraacetic acid (EDTA), and 1 M L-arginine).
(§7) CG53135-05, DEV10, which were also used in these experiments, was prepared by Cambrex Biosciences (Hopkinton, Mass.) according to Process 1 as described in Section 6.18.1, infra.
as §3
(§8) The above described experiments were also performed using CG53135-02 and CG53135-05 protein products, and the results are summarized in the Conclusion section below.

For assay [21], the system named is mesenchymal and epithelial cells. Briefly: Proliferation summary for variants. It is filed as cell-based. Particulars: in vitro. How it is done:
as §5, §6, §7, §3, §8

For assay [22], the system named is HUVECS. Briefly: Tube formation. The assay is classed as cell-based, human. Particulars: HUVEC.

For the substance “CG53135-01: FGF-20 wild type, stop codon removed; SEQ ID NOs 1 and 2; expressed as tagged full-length variant”, the “half maximal concentration for induction of DNA synthesis” value in assay [1] is recorded as around 10 ng/mL. Also, the “induction of DNA synthesis” value in assay [1] is listed as “dose-dependent manner”; in assay [4] it was “induced DNA synthesis”; in assay [5], “induced DNA synthesis”; in assay [9] it was “did not induce any significant increase in DNA synthesis”; in assay [10], “did not induce any significant increase in DNA synthesis”; in assay [11], “induced DNA synthesis”. For the same substance, the “induction of DNA synthesis” value is “did not induce any significant increase in DNA synthesis” in [12]; “induced DNA synthesis” in [13]; “did not induce any significant increase in DNA synthesis” in assay [14]; “induced DNA synthesis” in [15]; “induced DNA synthesis” in assay [17]; “did not induce any significant increase in DNA synthesis” in [18]. Moreover, the “increase in cell number relative to control” value in [2] was “approximately 2 fold”. For the same substance, the “VEGF induced cell migration” value in [3] is on record as “had no effect”. Moreover, the “cell survival and BrdU incorporation” value in assay [6], in [7] and in assay [8] was “did not alter cell survival or have stimulatory effects on BrdU incorporation” throughout. Also, the “effect on DNA synthesis” value in [16] is given as “no stimulatory effect”. The BrdU incorporation response result in assay [19] is recorded as “did not show any response”. Also, the “proliferation of endothelial cells” value in assay [20] is “not”. In addition, the “proliferation of mesenchymal and epithelial cells” value in assay [21] is on record as “induces a proliferative response”. The tube formation result in assay [22] was “did not inhibit tube formation”.

The values are drawn from patent publication US20050164929A1, “Methods of preventing and treating inflammatory bowel disease” (LUPINE LOGIC, INC., priority 2000, published 2005).
